How the values were obtained:
Ba/F3-NRAS-G12V cells = assay: Anti-proliferation assay (CellTiter Glo) on Ba/F3-NRAS-G12V; type: cell-based; details: Mus musculus, BaF3; 72 h treatment; average with SD (n = 3, duplicate)
Method: (§1) Ba/F3-parental, OCI-AML3, U397 cells were purchased from DSMZ. MDA-MB-231, HCT-116, AsPC-1, H358, HT-29, SW480, and DU-145 cells were obtained from KCLB. MDA-MB-468 cells were obtained from ATCC. All cells were maintained in RPMI with 10% FBS and antibiotics. Cells were grown in a humidified 5% CO2 incubator at 37°C. Ba/F3-parental cells were grown in the presence of 10 ng/ml IL-3. NRAS-G12D or NRAS-G12V transformed Ba/F3 cell lines (Ba/F3-NRAS-G12D, and Ba/F3-NRAS-G12V, respectively) were cultured without IL-3, which were established by the procedure described as previously ([30]).
(§2) Approximately 3.0 × 10^3 cells/well were seeded in a 96-well cell culture plate. After stabilization, 1/3 serially diluted compound in DMSO was treated to the cell. […] All GI50 values were obtained in duplicate with three independent assays and averages with standard deviation are presented.

AsPC-1 (KRAS-G12D) = assay: Anti-proliferation assay on AsPC-1; type: cell-based; details: Homo sapiens, ASPC1; 72 h treatment; average with SD (n = 3, duplicate)
Method: as §1, §2

OCI-AML3 (NRAS-Q61L) = assay: Anti-proliferation assay on OCI-AML3; type: cell-based, human; details: Homo sapiens, OCI-AML-3; 72 h treatment; average with SD (n = 3, duplicate)
Method: as §1, §2

U937 (KRAS, NRAS-wt) = assay: Anti-proliferation assay on U937; type: cell-based; details: Homo sapiens, U-937; 72 h treatment; average with SD (n = 3, duplicate)
Method: as §1, §2

[1] = tested on: phospho-70S6K1, -JNK, -p38 in Ba/F3-NRAS-G12D and OCI-AML cells; assay: Western blot, ACK1 and GCK downstream signaling (phospho-70S6K1, -JNK, -p38); type: cell-based; details: 0.1, 1, 10 μM for 2 h
Method: Approximately 1 × 10^6 cells per well were seeded in a 6-well cell culture plate. After cell adhesion, each compounds were treated for 2 h with indicated concentration and conducted brief washing twice by ice-cold PBS. Cells were lysed by NP40 buffer (50 mM Tris–HCl pH 7.4, 1% NP40, 2 mM EDTA, 150 mM NaCl) in the presence of protease inhibitor cocktail (Roche, #11873580001) and phosphatase inhibitor cocktail (Roche, #04906837001). Each sample was loaded with same amount of total protein and separated by SDS-PAGE gel. After transferred to nitrocellulose membrane, blocking with 5% skim milk (in TBS/T) was followed. The membrane was incubated 4°C for overnight with uniformly diluted primary antibodies at 1:1,000 (v/v) in TBS/T. The following primary antibodies were used: anti-p-AKT (Cell Signaling, #9271), anti-p-ERK1/2 (Cell Signaling, #4370), anti-PARP (Cell Signaling, #9542), anti-GAPDH (Cell Signaling, #5174), anti-p-70S6K1 (Cell Signaling, #9204), anti-p-JNK(Cell Signaling, #9251), anti-p-p38 (Cell Signaling, #9216), and anti-p-MEK1/2 (Santa Cruz, sc-81503). […] Chemiluminescence signals were detected by ImageQuant™ LAS 4000 (GE Healthcare). […]

[2] = tested on: cleaved PARP in cancer cells harboring mtRAS; assay: Western blot, cleaved PARP in cancer cells harboring mtRAS; type: cell-based; details: 1 μM, 24 h
Method: Approximately 1 × 10^6 cells per well were seeded in a 6-well cell culture plate. After cell adhesion, each compounds were treated for 2 h with indicated concentration and conducted brief washing twice by ice-cold PBS. Cells were lysed by NP40 buffer (50 mM Tris–HCl pH 7.4, 1% NP40, 2 mM EDTA, 150 mM NaCl) in the presence of protease inhibitor cocktail (Roche, #11873580001) and phosphatase inhibitor cocktail (Roche, #04906837001). Each sample was loaded with same amount of total protein and separated by SDS-PAGE gel. After transferred to nitrocellulose membrane, blocking with 5% skim milk (in TBS/T) was followed. […] Chemiluminescence signals were detected by ImageQuant™ LAS 4000 (GE Healthcare).
Figure 4 The effects of (A) SIJ1795 and (B) SIJ1772 on apoptosis induction in cancer cells harboring mtRAS. […] (C) Apoptotic cell population (annexin V-positive) was determined by flow cytometry analysis (n = 3). […] Statistical significance was determined using a one-way ANOVA analysis (*p < 0.05, **p < 0.01, ***p < 0.001).

[3] = tested on: cancer cells harboring mtRAS; assay: Flow cytometry apoptosis analysis (annexin V/PI), cancer cells harboring mtRAS; type: cell-based; details: 1 μM, 24 h
Method: For apoptosis analysis, cells (1 × 10^6 cells per sample) were incubated with each compounds for 24 h. Cells were subjected to brief ice-cold PBS washing and subjected to staining with Alexafluor488-conjugated annexin V (Thermo Fisher, A13201), and propidium iodide (PI, Thermo Fisher, P3560). Thereafter, apoptotic cells were classified by FACS Accuri™ C6 Plus (BD Biosciences). Debris and unstained cells and were excluded by gating.
Figure 4 The effects of (A) SIJ1795 and (B) SIJ1772 on apoptosis induction in cancer cells harboring mtRAS. Cells were treated with 0.1 and 1 μM of SIJ1795 SIJ1772, and GNF-7 for 24 h. Western blot analysis was conducted to evaluate the cleaved PARP and level. GAPDH was used as a loading control. (C) Apoptotic cell population (annexin V-positive) was determined by flow cytometry analysis (n = 3). Cells were treated with 1 μM of indicated compounds for 24 h. Statistical significance was determined using a one-way ANOVA analysis (*p < 0.05, **p < 0.01, ***p < 0.001).

[4] = tested on: cancer cells harboring mtRAS; assay: Colony formation assay (2D clonogenic assay); type: cell-based; details: 0.1 μM, 14 days
Method: Colony formation assay was conducted for 2D clonogenic assay. Approximately 1 × 10^3 cells/well were seeded in 6-well plate. After cellular attachment, indicated concentrations of compounds were treated for 14 days at 37°C. Colonies were stained by crystal violet solution for 30 min. The total area of each well was observed without magnification, and the number of colonies of each well were accessed using ImageJ software (n = 3).
Figure 7 (A–F) Colony formation assay results evaluating the effects of SIJ1795 and SIJ1772 on clonogenic abilities of on cancer cells harboring mtRAS. Cells were incubated with indicated compounds (0.01 µM or 0.1 µM) for 14 days. After staining with crystal violet, colonies were photographed without magnification. (G–L) Number of colonies (% of control) upon treatment with indicated compounds at 0.1 µM concentration were determined by ImageJ (n = 3, respectively). Statistical significance was calculated by using a one-way ANOVA analysis (**p < 0.01, ***p < 0.001, ****p < 0.0001).

Row | SMILES | GI50 (Ba/F3-NRAS-G12V cells) | GI50 (AsPC-1 (KRAS-G12D)) | GI50 (OCI-AML3 (NRAS-Q61L)) | GI50 (U937 (KRAS, NRAS-wt)) | phosphorylation of 70S6K1 (downstream molecule of ACK), JNK, p38 (downstream molecule of GCK) [1] | level of cleaved PARP in cancer cells harboring mtRAS [2] | apoptosis against cancer cells harboring mtRAS (annexin V/PI) [3] | colony formation [4]
1 | Cc1ccc(NC(=O)c2cccc(C(F)(F)F)c2)cc1N1Cc2cnc(Nc3cnn(C4CCN(S(C)(=O)=O)CC4)c3)nc2N(C)C1=O [SIJ1772, N-(4-Methyl-3-(1-methyl-7-((1-(1-(methylsulfonyl)piperidin-4-yl)-1H-pyrazol-4-yl)amino)-2-oxo-1,4-dihydropyrimido[4,5-d]pyrimidin-3(2H)-yl)phenyl)-3-(trifluoromethyl)benzamide] | 96 ± 9 nM | 170 ± 32 nM | 65 ± 29 nM | 9590 ± 832 nM | effectively inhibited | notably increased | induced apoptosis | suppressed
2 | CCN1CCN(c2cccc(Nc3ncc4c(n3)N(C)C(=O)N(c3cc(NC(=O)c5cccc(C(F)(F)F)c5)ccc3C)C4)c2)CC1 [SIJ1795, N-(3-(7-((3-(4-Ethylpiperazin-1-yl)phenyl)amino)-1-methyl-2-oxo-1,4-dihydropyrimido[4,5-d]pyrimidin-3(2H)-yl)-4-methylphenyl)-3-(trifluoromethyl)benzamide] | 75 ± 45 nM | 144 ± 23 nM | 52 ± 52 nM | 1000 ± 126 nM | effectively inhibited | notably increased | induced apoptosis | suppressed

Source: article PMC8695447, “Novel Small Molecules Capable of Blocking mtRAS-Signaling Pathway” (Frontiers in Oncology, 2021)
